Test results as given in US20230271950A1, “ANTIBACTERIAL PICOLINAMIDE COMPOUNDS” (University of Notre Dame Du Lac, priority 2020, published 2023).
In brackets after ≈: the same amount, converted by molar mass. Like-named read-outs stand apart in the source and are kept apart here.

System: C. difficile
Assay: MIC by broth microdilution against C. difficile strains
Format: cell-based, Clostridioides difficile
Settings: Clostridioides difficile, read-out: MIC

In the case of `Cc1ncc([N+](=O)[O-])n1CCO` [MTZ, metronidazole, reference compound], the MIC (ATCC43255, C. difficile ATCC43255 (TcdA+, TcdB+), Table 1) is reported as 0.25 µg/mL (≈ 1.46 µM), the MIC (ATCC43255, C. difficile ATCC43255, Table 7) is reported as 0.25 µg/mL (≈ 1.46 µM) and the MIC (ATCC43255, C. difficile ATCC43255, Table 9) is reported as 0.25 µg/mL (≈ 1.46 µM). For the same compound, the MIC (BAA1803, C. difficile BAA-1803, Table 7) was 0.5 µg/mL (≈ 2.92 µM), the MIC (BAA1803, C. difficile BAA-1803, Table 9) was 0.5 µg/mL (≈ 2.92 µM) and the MIC (BAA1804, C. difficile BAA-1804, Table 7) was 0.25 µg/mL (≈ 1.46 µM). It also gave an MIC (BAA1804, C. difficile BAA-1804, Table 9) of 0.25 µg/mL (≈ 1.46 µM), an MIC (BAA1812, C. difficile BAA-1812, Table 7) of 0.25 µg/mL (≈ 1.46 µM) and an MIC (BAA1812, C. difficile BAA-1812, Table 9) of 0.25 µg/mL (≈ 1.46 µM). The MIC (BAA1814, C. difficile BAA-1814, Table 7) was 0.25 µg/mL (≈ 1.46 µM), the MIC (BAA1814, C. difficile BAA-1814, Table 9) was 0.25 µg/mL (≈ 1.46 µM) and the MIC (BAA1870, C. difficile BAA-1870 (NAP1, ribotype 27), Table 1) was 0.5 µg/mL (≈ 2.92 µM). For the same compound, the MIC (BAA1870, C. difficile BAA-1870, Table 7) was 0.5 µg/mL (≈ 2.92 µM), the MIC (BAA1870, C. difficile BAA-1870, Table 9) was 0.5 µg/mL (≈ 2.92 µM) and the MIC (C. difficile 23691 (VR, vancomycin-resistant), Table 7) was 0.5 µg/mL (≈ 2.92 µM). It also gave an MIC (C. difficile 23691, clinical isolate resistant to VAN, Table 1) of 0.5 µg/mL (≈ 2.92 µM), an MIC (C. difficile 23691, Table 9) of 0.5 µg/mL (≈ 2.92 µM) and an MIC (C. difficile 23828 (FR, fidaxomicin-resistant), Table 7) of 0.5 µg/mL (≈ 2.92 µM). For the same compound, the MIC (C. difficile 23828, clinical isolate resistant to FDX, Table 1) was 0.5 µg/mL (≈ 2.92 µM), the MIC (C. difficile 23828, Table 9) was 0.5 µg/mL (≈ 2.92 µM) and the MIC (C. difficile 24531 (VR, vancomycin-resistant), Table 7) was 0.5 µg/mL (≈ 2.92 µM). For the same compound, the MIC (C. difficile 24531, Table 9) was 0.5 µg/mL (≈ 2.92 µM), the MIC (C. difficile 24923 (VR, vancomycin-resistant), Table 7) was 0.25 µg/mL (≈ 1.46 µM) and the MIC (C. difficile 24923, Table 9) was 0.25 µg/mL (≈ 1.46 µM). It also gave an MIC (C. difficile 26675 (MR, metronidazole-resistant), Table 7) of 4 µg/mL (≈ 23.4 µM), an MIC (C. difficile 26675, clinical isolate resistant to MTZ, Table 1) of 4 µg/mL (≈ 23.4 µM) and an MIC (C. difficile 26675, Table 9) of 4 µg/mL (≈ 23.4 µM). For the same compound, the MIC (C. difficile 27081 (FR, fidaxomicin-resistant), Table 7) was 0.5 µg/mL (≈ 2.92 µM), the MIC (C. difficile 27081, Table 9) was 0.5 µg/mL (≈ 2.92 µM) and the MIC (C. difficile 27173 (MR, metronidazole-resistant), Table 7) was 4 µg/mL (≈ 23.4 µM). The MIC (C. difficile 27173, Table 9) was 4 µg/mL (≈ 23.4 µM), the MIC (C. difficile HM-88, Table 9) was 0.25 µg/mL (≈ 1.46 µM) and the MIC (C. difficile HM-89, Table 9) was 0.25 µg/mL (≈ 1.46 µM). It also gave an MIC (C. difficile HM-745, Table 9) of 0.5 µg/mL (≈ 2.92 µM), an MIC (C. difficile HM-746, Table 9) of 0.25 µg/mL (≈ 1.46 µM) and an MIC (C. difficile HM-747, Table 9) of 0.5 µg/mL (≈ 2.92 µM). The MIC (C. difficile NR49292, Table 7) was 0.25 µg/mL (≈ 1.46 µM), the MIC (C. difficile NR49292, Table 9) was 0.25 µg/mL (≈ 1.46 µM) and the MIC (C. difficile NR49294, Table 7) was 0.25 µg/mL (≈ 1.46 µM). For the same compound, the MIC (C. difficile NR49294, Table 9) was 0.25 µg/mL (≈ 1.46 µM), the MIC (C. difficile NR49305, Table 7) was 0.25 µg/mL (≈ 1.46 µM) and the MIC (C. difficile NR49305, Table 9) was 0.25 µg/mL (≈ 1.46 µM). For the same compound, the MIC (C. difficile NR49318, Table 7) was 0.25 µg/mL (≈ 1.46 µM), the MIC (C. difficile NR49318, Table 9) was 0.25 µg/mL (≈ 1.46 µM) and the MIC (C. difficile NR-13427, Table 9) was 1 µg/mL (≈ 5.84 µM). The MIC (C. difficile NR-13428, Table 9) was 1 µg/mL (≈ 5.84 µM), the MIC (C. difficile NR-13429, Table 9) was 1 µg/mL (≈ 5.84 µM) and the MIC (C. difficile NR-13430, Table 9) was 0.5 µg/mL (≈ 2.92 µM). The MIC (C. difficile NR-13431, Table 9) was 0.5 µg/mL (≈ 2.92 µM), the MIC (C. difficile NR-13433, Table 9) was 0.5 µg/mL (≈ 2.92 µM) and the MIC (C. difficile NR-13434, Table 9) was 0.5 µg/mL (≈ 2.92 µM). It also gave an MIC (C. difficile NR-13435, Table 9) of 0.5 µg/mL (≈ 2.92 µM), an MIC (C. difficile NR-13436, Table 9) of 0.5 µg/mL (≈ 2.92 µM) and an MIC (C. difficile NR-13437, Table 9) of 0.5 µg/mL (≈ 2.92 µM). It also gave an MIC (C. difficile NR-13438, Table 9) of 0.5 µg/mL (≈ 2.92 µM), an MIC (C. difficile NR-13553, Table 9) of 0.5 µg/mL (≈ 2.92 µM) and an MIC (C. difficile NR-32882, Table 9) of 0.25 µg/mL (≈ 1.46 µM). The MIC (C. difficile NR-32883, Table 9) was 0.5 µg/mL (≈ 2.92 µM), the MIC (C. difficile NR-32884, Table 9) was 0.5 µg/mL (≈ 2.92 µM) and the MIC (C. difficile NR-32885, Table 9) was 0.5 µg/mL (≈ 2.92 µM). It also gave an MIC (C. difficile NR-32886, Table 9) of 0.5 µg/mL (≈ 2.92 µM), an MIC (C. difficile NR-32887, Table 9) of 2 µg/mL (≈ 11.7 µM) and an MIC (C. difficile NR-32888, Table 9) of 0.5 µg/mL (≈ 2.92 µM). It also gave an MIC (C. difficile NR-32889, Table 9) of 2 µg/mL (≈ 11.7 µM), an MIC (C. difficile NR-32890, Table 9) of 0.5 µg/mL (≈ 2.92 µM) and an MIC (C. difficile NR-32891, Table 9) of 0.25 µg/mL (≈ 1.46 µM). It also gave an MIC (C. difficile NR-32892, Table 9) of 0.5 µg/mL (≈ 2.92 µM), an MIC (C. difficile NR-32895, Table 9) of 1 µg/mL (≈ 5.84 µM) and an MIC (C. difficile NR-32896, Table 9) of 1 µg/mL (≈ 5.84 µM). The MIC (C. difficile NR-32897, Table 9) was 0.5 µg/mL (≈ 2.92 µM) and the MIC (C. difficile NR-32900, Table 9) was 1 µg/mL (≈ 5.84 µM).
